# Peptide text beside a SMILES is read from it.
# How the values were obtained:
# Rat C6 glioma cell line = test: Cell adhesion assay for C6 cell line (Example 6C); assay type: cell-based; settings: FIG. 12
# Description: (§1) Adhesion was measured using 96 well microtiter plates adsorbed with three different amounts (0.1; 1.0; and 10.0 μg/per well) of peptides 9, 11-18, BSA and laminin. Cultures of cells which were 60-80% confluent were metabolically labeled for 24 hours with the addition of 3 mCi/ml of ^3 H-amino acid mixture. On the day of the assay, the cells were harvested by trypsinization, the trypsin was inhibited by the addition of serum, and the cells were washed free of this mixture and resuspended in DMEM buffered with HEPES at pH 7.2. The adhesion medium also contained 2 mg/ml BSA. The cells were adjusted to a concentration of 3-4×10^4 /ml and 100 μls of this cell suspension was added to the wells. The assay mixture was then incubated at 37° C for 120 minutes. At the end of the incubation, the wells were washed with warm PBS containing 10 mM Ca^++, and the adherent population was solubilized with 0.5N NaOH containing 1% sodium dodecyl sulfate. The solubilized cells were then quantitated using a liquid scintillation counter. Each determination was done in triplicate.
# Rat C6 glioma cell line was purchased from the American Type Culture Collection (identification number CCL 107). Culturing techniques were as described in part A. Labelling and harvesting techniques were as described in Example 5. Cell adhesion assay was performed as described in Example 5.
# [1] = Heparin binding assay on nitrocellulose sheets (Example 1); settings: peptide on nitrocellulose, 1 mg/ml to 1 μg/ml, 2 hours, FIG. 4
# Description: The assay for heparin binding utilizes nitrocellulose sheets as subtrata to bind peptides or proteins to be tested for heparin binding activity. Peptides 9 and 11-18 were solubilized in 50 mM NH3 HCO3 to form solutions of 1 mg/ml. Each solution was serially diluted 1:1 in the same buffer producing concentrations from 1 mg/ml to 1 μg/ml. Nitrocellulose sheets which had been presoaked in 50 mM NH3 HCO3 were placed in a 96 well dot blot apparatus (Bethesda Research Laboratories, Bethesda, MD, and 100 μl of various concentrations of each peptide were aspirated through the wells. Each well was then washed three times with binding buffer (10 mM Tris-HCl, pH 8.0, 0.15 M NaCl), and the filters were removed and allowed to air dry overnight. The filters were then equilibriated for 5 minutes at room temperature in binding buffer which contained 10 mM CaCl2. ^3 H-heparin was then diluted to a concentration of 50,000 cpm/ml in binding buffer (with Ca^++), and nitrocellulose sheets were incubated in the presence of this mixture for 2 hours. The filters were then washed four times with binding buffer, and air dried. The individual spots of samples were cut out of the nitrocellulose, immersed in scintillation fluid and bound heparin was quantitated with a Beckman LS-3801 liquid scintillation counter. […]
# [2] = tested on: murine melanoma cells, K-1735-M4; test: Cell adhesion assay for M4 cell line (Example 6A); assay type: cell-based; settings: FIG. 10
# Description: as §1
# Highly metastatic murine melanoma cells, K-1735-M4 were originally provided by Dr. I. J. Fidler of Anderson Hospital, University of Texas Health Sciences Center, Houston, Tex. When the cells were received, a large number of early passage cells were propagated and frozen in liquid nitrogen. […]
SMILES,cell adhesion (Rat C6 glioma cell line),binding of ^3 H-heparin [1],cell adhesion [2]
"CC[C@H](C)[C@H](NC(=O)[C@H](CCCCN)NC(=O)[C@H](CC(C)C)NC(=O)[C@H](C)NC(=O)[C@H](CCCCN)NC(=O)[C@H](C)NC(=O)[C@H](CCCCN)NC(=O)[C@H](CCC(=O)O)NC(=O)[C@H](CC(C)C)NC(=O)[C@H](Cc1ccccc1)NC(=O)[C@H](CCCCN)NC(=O)[C@H](Cc1c[nH]cn1)NC(=O)[C@@H](NC(=O)[C@H](CCCNC(=N)N)NC(=O)[C@H](CC(N)=O)NC(=O)[C@@H](NC(=O)[C@H](CC(C)C)NC(=O)[C@@H](N)CCC(=O)O)[C@@H](C)O)[C@@H](C)O)C(=O)O [Peptide F13, ELTNRTHKFLEKAKALKI] (H-ELTNRTHKFLEKAKALKI-OH)",potent promoters of cell adhesion,strongly bound ^3 H-heparin,potent promoters of cell adhesion
CSCC[C@H](NC(=O)CNC(=O)[C@H](CCCCN)NC(=O)[C@H](CCC(=O)O)NC(=O)[C@H](Cc1ccccc1)NC(=O)[C@H](CS)NC(=O)[C@@H](NC(=O)[C@@H]1CCCN1C(=O)[C@H](CCCNC(=N)N)NC(=O)[C@@H]1CCCN1C(=O)[C@H](CC(C)C)NC(=O)[C@@H](NC(=O)[C@@H](NC(=O)[C@H](Cc1ccc(O)cc1)NC(=O)[C@@H](N)CCCNC(=N)N)C(C)C)C(C)C)C(C)C)C(=O)N[C@@H](CC(N)=O)C(=O)N[C@@H](Cc1ccc(O)cc1)C(=O)N[C@H](C(=O)N[C@H](C(=O)N[C@@H](CCCNC(=N)N)C(=O)O)C(C)C)[C@@H](C)O [Peptide F9] (H-RYVVLPRPVCFEKGMNYTVR-OH),potent promoters of cell adhesion,strongly bound ^3 H-heparin,potent promoters of cell adhesion

# Reference: patent US4870160A, “Polypeptides with laminin activity” (Regents of the University of Minnesota, priority 1987, dated 1989)
